Source: patent publication US9695155B2, “Herbicidal substituted pyrimidinyloxy benzene compounds” (E. I. DU PONT DE NEMOURS AND COMPANY, priority 2013, dated 2017)

Key:
[1] = test system: barnyardgrass; test: Test A preemergence; type: in vivo, Echinochloa crus-galli; details: Echinochloa crus-galli, pre-emergence, 240 h
In short: (§1)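 Pre- and postemergence greenhouse screen. Soil: loam + sand. Spray carrier: solvent mixture, non-phytotoxic, with surfactant. Post timing at 1–2 leaves, height 2–10 cm. Readout: visual injury on a 0–100 scale roughly 10 days after application, untreated plants as reference.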

[2] = test system: morningglory; test: Test A postemergence; type: in vivo, Ipomoea spp.; details: Ipomoea, post-emergence, 240 h
In short: as §1

[3] = test system: wheat; test: Test A postemergence; type: in vivo, Triticum aestivum; details: Triticum aestivum, post-emergence, 240 h
In short: as §1

[4] = test system: rice; test: Test B flooded paddy test; type: in vivo, Oryza sativa; details: Oryza sativa; Flood, 250 g ai/ha; 0 to 100 scale where 0 is no effect and 100 is complete control; read-out: Plant response rating, Rice
In short: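 Plants were grown to the 2-leaf stage, then pots were flooded to 3 cm above the soil and compounds were applied directly into the paddy water. That depth was held throughout, and after 13 to 15 days in the greenhouse injury was rated visually against controls on a 0–100 scale (0 no effect, 100 complete control).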

[5] = test system: blackgrass; test: Test C preemergence; type: in vivo, Alopecurus myosuroides; details: Alopecurus myosuroides, pre-emergence
In short: (§2)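 Preemergence: seeds sown in a loam soil–sand blend and sprayed with test chemical in a non-phytotoxic solvent mixture containing surfactant. Postemergence: plants at 2 to 18 cm (1- to 4-leaf stage) in peat-based medium, treated with the same formulation. Greenhouse 13 to 15 days, then visual rating 0 (no effect) to 100 (complete control).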

[6] = test system: wheat, winter; test: Test C preemergence; type: in vivo, Triticum aestivum; details: Triticum aestivum, pre-emergence
In short: as §2

[7] = test system: large (Lg) crabgrass; test: Test C preemergence; type: in vivo, Digitaria sanguinalis; details: Digitaria sanguinalis, pre-emergence
In short: as §2

[8] = test system: soybean; test: Test C preemergence; type: in vivo, Glycine max; details: Glycine max, pre-emergence
In short: as §2

[9] = test system: barnyardgrass; test: Test C preemergence; type: in vivo, Echinochloa crus-galli; details: Echinochloa crus-galli, pre-emergence
In short: as §2

[10] = test system: blackgrass; test: Test C postemergence; type: in vivo, Alopecurus myosuroides; details: Alopecurus myosuroides, post-emergence
In short: as §2

[11] = test system: giant foxtail; test: Test C postemergence; type: in vivo, Setaria faberii; details: Setaria faberi, post-emergence
In short: as §2

[12] = test system: ragweed; test: Test C postemergence; type: in vivo, Ambrosia elatior; details: Ambrosia artemisiifolia, post-emergence
In short: as §2

[13] = test system: soybean; test: Test C postemergence; type: in vivo, Glycine max; details: Glycine max, post-emergence
In short: as §2

[14] = test system: oilseed rape; test: Test C postemergence; type: in vivo, Brassica napus; details: Brassica napus, post-emergence
In short: as §2

N#Cc1cccc(Oc2ncc(Cl)cn2)c1-n1cc(C(F)(F)F)cn1 [Compound 58, 3-[(5-chloro-2-pyrimidinyl)oxy]-2-[4-(trifluoromethyl)-1H-pyrazol-1-yl]benzonitrile]
30%: pest or weed control at 125 g/ha ([10]; 125 g ai/ha, postemergence, read-out: Plant response rating (0 to 100), Blackgrass)
40%: pest or weed control at 62 g/ha ([11]; Postemergence, 62 g ai/ha, scale 0 to 100 (0 no effect, 100 complete control), read-out: Plant response rating, Foxtail, Giant) | pest or weed control at 31 g/ha ([12]; Postemergence, 31 g ai/ha, scale 0 to 100 (0 no effect, 100 complete control), 13 to 15 days, read-out: Plant response rating, Ragweed)
15%: pest or weed control at 62 g/ha ([10]; Postemergence, 62 g ai/ha, scale 0 to 100 (0 no effect, 100 complete control), read-out: Plant response rating, Blackgrass) | pest or weed control at 31 g/ha ([11]; Postemergence, 31 g ai/ha, scale 0 to 100 (0 no effect, 100 complete control), 13 to 15 days, read-out: Plant response rating, Foxtail, Giant)
90%: plant injury at 125 g/ha ([3]; 125 g ai/ha, 0 to 100 scale where 0 is no effect and 100 is complete control, read-out: Plant response rating, Wheat) | pest or weed control at 62 g/ha ([5]; 62 g ai/ha, preemergence, scale 0 (no effect) to 100 (complete control), read-out: Blackgrass plant response rating) | pest or weed control at 125 g/ha ([5]; 125 g ai/ha, preemergence, scale 0 (no effect) to 100 (complete control), read-out: Blackgrass plant response rating) | pest or weed control at 250 g/ha ([5]; 250 g ai/ha, preemergence, scale 0 (no effect) to 100 (complete control), read-out: Blackgrass plant response rating) | pest or weed control at 31 g/ha ([5]; Preemergence, 31 g ai/ha, scale 0 to 100, 0 no effect, 100 complete control, read-out: Plant response rating, Blackgrass) | plant injury at 250 g/ha ([6]; 250 g ai/ha, preemergence, scale 0 (no effect) to 100 (complete control), read-out: Wheat plant response rating) | plant injury at 31 g/ha ([8]; Preemergence, 31 g ai/ha, scale 0 to 100, 0 no effect, 100 complete control, read-out: Plant response rating, Soybean) | pest or weed control at 250 g/ha ([12]; 250 g ai/ha, postemergence, read-out: Plant response rating (0 to 100), Ragweed)
98%: plant injury at 125 g/ha ([8]; 125 g ai/ha, preemergence, scale 0 (no effect) to 100 (complete control), read-out: Soybean plant response rating) | plant injury at 250 g/ha ([8]; 250 g ai/ha, preemergence, scale 0 (no effect) to 100 (complete control), read-out: Soybean plant response rating) | pest or weed control at 31 g/ha ([9]; Preemergence, 31 g ai/ha, scale 0 to 100, 0 no effect, 100 complete control, read-out: Plant response rating, Barnyardgrass) | Soybean plant response rating (crop injury, 0-100 scale) at 125 g/ha ([13]; 125 g ai/ha, postemergence, read-out: Plant response rating (0 to 100), Soybean) | Soybean plant response rating (crop injury, 0-100 scale) at 250 g/ha ([13]; 250 g ai/ha, postemergence)
95%: plant injury at 62 g/ha ([8]; 62 g ai/ha, preemergence, scale 0 (no effect) to 100 (complete control), read-out: Soybean plant response rating) | pest or weed control at 250 g/ha ([11]; 250 g ai/ha, postemergence, read-out: Plant response rating (0 to 100), Foxtail, Giant) | Soybean plant response rating (crop injury, 0-100 scale) at 31 g/ha ([13]; Postemergence, 31 g ai/ha, scale 0 to 100 (0 no effect, 100 complete control), 13 to 15 days) | Soybean plant response rating (crop injury, 0-100 scale) at 62 g/ha ([13]; Postemergence, 62 g ai/ha, scale 0 to 100 (0 no effect, 100 complete control))
10%: pest or weed control at 31 g/ha ([10]; Postemergence, 31 g ai/ha, scale 0 to 100 (0 no effect, 100 complete control), 13 to 15 days, read-out: Plant response rating, Blackgrass)
80%: plant injury at 62 g/ha ([6]; 62 g ai/ha, preemergence, scale 0 (no effect) to 100 (complete control), read-out: Wheat plant response rating) | plant injury at 125 g/ha ([6]; 125 g ai/ha, preemergence, scale 0 (no effect) to 100 (complete control), read-out: Wheat plant response rating) | pest or weed control at 125 g/ha ([11]; 125 g ai/ha, postemergence, read-out: Plant response rating (0 to 100), Foxtail, Giant)
70%: plant injury at 62 g/ha ([14]; Postemergence, 62 g ai/ha, scale 0 to 100 (0 no effect, 100 complete control), read-out: Plant response rating, Oilseed Rape)
100%: pest or weed control at 125 g/ha ([1]; 125 g ai/ha, 0 to 100 scale where 0 is no effect and 100 is complete control, read-out: Plant response rating, Barnyardgrass) | pest or weed control at 500 g/ha ([1]; 500 g ai/ha, 0 to 100 scale, 0 no effect, 100 complete control, approx. 10 days, read-out: Barnyardgrass plant response rating) | pest or weed control at 125 g/ha ([2]; 125 g ai/ha, 0 to 100 scale where 0 is no effect and 100 is complete control, read-out: Plant response rating, Morningglory) | pest or weed control at 500 g/ha ([2]; 500 g ai/ha, 0 to 100 scale, 0 no effect, 100 complete control, read-out: Plant response rating Morningglory) | plant injury at 500 g/ha ([3]; 500 g ai/ha, 0 to 100 scale, 0 no effect, 100 complete control, read-out: Plant response rating Wheat) | pest or weed control at 62 g/ha ([7]; 62 g ai/ha, preemergence, scale 0 (no effect) to 100 (complete control), read-out: Crabgrass, Large plant response rating) | pest or weed control at 125 g/ha ([7]; 125 g ai/ha, preemergence, scale 0 (no effect) to 100 (complete control), read-out: Crabgrass, Large plant response rating) | pest or weed control at 250 g/ha ([7]; 250 g ai/ha, preemergence, scale 0 (no effect) to 100 (complete control), read-out: Crabgrass, Large plant response rating) | pest or weed control at 31 g/ha ([7]; Preemergence, 31 g ai/ha, scale 0 to 100, 0 no effect, 100 complete control, read-out: Plant response rating, Crabgrass, Large) | pest or weed control at 62 g/ha ([9]; 62 g ai/ha, preemergence, scale 0 (no effect) to 100 (complete control), read-out: Barnyardgrass plant response rating) | pest or weed control at 125 g/ha ([9]; 125 g ai/ha, preemergence, scale 0 (no effect) to 100 (complete control), read-out: Barnyardgrass plant response rating) | pest or weed control at 250 g/ha ([9]; 250 g ai/ha, preemergence, scale 0 (no effect) to 100 (complete control), read-out: Barnyardgrass plant response rating)
50%: plant injury at 250 g/ha [4]
45%: plant injury at 31 g/ha ([6]; Preemergence, 31 g ai/ha, scale 0 to 100, 0 no effect, 100 complete control, read-out: Plant response rating, Wheat) | pest or weed control at 62 g/ha ([12]; Postemergence, 62 g ai/ha, scale 0 to 100 (0 no effect, 100 complete control), read-out: Plant response rating, Ragweed)
55%: pest or weed control at 250 g/ha ([10]; 250 g ai/ha, postemergence, read-out: Plant response rating (0 to 100), Blackgrass)
60%: plant injury at 31 g/ha ([14]; Postemergence, 31 g ai/ha, scale 0 to 100 (0 no effect, 100 complete control), 13 to 15 days, read-out: Plant response rating, Oilseed Rape)
85%: pest or weed control at 125 g/ha ([12]; 125 g ai/ha, postemergence, read-out: Plant response rating (0 to 100), Ragweed) | plant injury at 125 g/ha ([14]; 125 g ai/ha, postemergence, read-out: Plant response rating (0 to 100), Oilseed Rape) | plant injury at 250 g/ha ([14]; 250 g ai/ha, postemergence, read-out: Plant response rating (0 to 100), Oilseed Rape)
